# Experimental data taken from US10173991B2, “Sulfone amide linked benzothiazole inhibitors of endothelial lipase” (BRISTOL-MYERS SQUIBB COMPANY, priority 2014, dated 2019).
# Target: Endothelial lipase (EL) (Homo sapiens (Human), UniProt Q9Y5X9)
# Experiment: Endothelial lipase (EL) enzymatic assay with fluorescent substrate A10070 in DMPG vesicles
# Assay type: biochemical
# Conditions: not given
# Procedure, shortened: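 Substrate A10070 sits in sonicated DMPG vesicles at 0.11 mole fraction. Lipase and compound preincubated 30 min, 37° C, in HEPES pH 8.0 buffer with CaCl2.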
# Sequence of Endothelial lipase (EL) (Q9Y5X9 21-500): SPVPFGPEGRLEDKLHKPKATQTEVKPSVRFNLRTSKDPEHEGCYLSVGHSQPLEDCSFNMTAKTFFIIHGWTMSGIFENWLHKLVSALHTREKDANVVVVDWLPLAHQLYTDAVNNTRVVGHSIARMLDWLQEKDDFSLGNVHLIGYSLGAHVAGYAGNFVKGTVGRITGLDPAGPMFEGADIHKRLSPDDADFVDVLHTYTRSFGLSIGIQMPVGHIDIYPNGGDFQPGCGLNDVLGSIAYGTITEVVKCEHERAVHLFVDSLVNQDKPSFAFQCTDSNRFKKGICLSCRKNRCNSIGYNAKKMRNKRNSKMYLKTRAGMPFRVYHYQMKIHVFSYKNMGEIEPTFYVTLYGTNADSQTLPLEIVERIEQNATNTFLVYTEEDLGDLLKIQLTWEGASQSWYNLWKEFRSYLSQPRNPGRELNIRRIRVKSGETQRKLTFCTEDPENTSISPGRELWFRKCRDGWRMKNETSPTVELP
row,Structure (SMILES),IC50 [nM]
1,"COCCS(=O)(=O)C(C(=O)NCC(=O)NC1CC1)c1nc2cc(F)c(-c3cccc(C(=O)N(C)C)c3)cc2s1 (stereo not drawn) [Example 177, 3-[2-({[(cyclopropyl-carbamoyl)methyl]carbamoyl}(2-methoxyethane-sulfonyl)methyl)-5-fluoro-1,3-benzothiazol-6-yl]-N,N-dimethyl-benzamide]",51
2,"CC(C)S(=O)(=O)C(C(=O)NCC(=O)NC1CC1)c1nc2cc(F)c(-c3ccc4[nH]c(=O)ccc4c3)cc2s1 (stereo not drawn) [Example 234, N-[(cyclopropyl-carbamoyl)methyl]-2-[5-fluoro-6-(2-oxo-1,2-dihydroquinolin-6-yl)-1,3-benzothiazol-2-yl]-2-(propane-2-sulfonyl) acetamide]",6
3,"CC(=O)Nc1ccc(-c2cc3nc(C(C(=O)NCC(=O)NC4CC4)S(C)(=O)=O)sc3cc2F)cc1 (stereo not drawn) [Example 113, N-[(cyclopropyl-carbamoyl)methyl]-2-[5-(4-acetamidophenyl)-6-fluoro-1,3-benzothiazol-2-yl]-2-methanesulfonyl-acetamide]",9
4,"COCCS(=O)(=O)C(C(=O)NCC(=O)NC1CC1)c1nc2cc(F)c(-c3ccc(-c4noc(=O)[nH]4)cc3)cc2s1 (stereo not drawn) [Example 286, N-[(cyclopropyl-carbamoyl)methyl]-2-{5-fluoro-6-[4-(5-oxo-4,5-dihydro-1,2,4-oxadiazol-3-yl)phenyl]-1,3-benzothiazol-2-yl}-2-(2-methoxyethane-sulfonyl)acetamide]",8
5,"COCCS(=O)(=O)C(C(=O)NCC(=O)NC1CC1)c1nc2cc(C)c(-c3ccn(C)c(=O)c3)cc2s1 (stereo not drawn) [Example 172, N-[(cyclopropyl-carbamoyl)methyl]-2-(2-methoxyethane-sulfonyl)-2-[5-methyl-6-(1-methyl-2-oxo-1,2-dihydropyridin-4-yl)-1,3-benzothiazol-2-yl]acetamide]",27
6,"COCCS(=O)(=O)C(C(=O)NCC(=O)NC1CC1)c1nc2cc(F)c(-c3cnc(C)nc3)cc2s1 (stereo not drawn) [Example 156, N-[(cyclopropyl-carbamoyl)methyl]-2-[5-fluoro-6-(2-methylpyrimidin-5-yl)-1,3-benzothiazol-2-yl]-2-(2-methoxyethane-sulfonyl) acetamide]",11
7,"CC(C)S(=O)(=O)C(C(=O)NCC(=O)NC1CC1)c1nc2cc(F)c(-c3ccc(C4CC4)nc3)cc2s1 (stereo not drawn) [Example 241, N-[(cyclopropyl-carbamoyl)methyl]-2-[6-(6-cyclopropyl-pyridin-3-yl)-5-fluoro-1,3-benzothiazol-2-yl]-2-(propane-2-sulfonyl) acetamide]",17
8,"O=C(CNC(=O)C(c1nc2cc(-c3ccc(F)nc3)ccc2s1)S(=O)(=O)Cc1ccc(F)nc1)NC1CC1 (stereo not drawn) [Example 15, N-[(cyclopropyl-carbamoyl)methyl]-2-[5-(6-fluoropyridin-3-yl)-1,3-benzothiazol-2-yl]-2-[(6-fluoropyridin-3-yl)methanesulfonyl] acetamide]",29
9,"CS(=O)(=O)C(C(=O)NCC(=O)NC1CC1)c1nc2cc(F)c(-c3ccc(NC(N)=O)cc3)cc2s1 (stereo not drawn) [Example 3, 2-{6-[4-(carbamoyl-amino)phenyl]-5-fluoro-1,3-benzothiazol-2-yl}-N-[(cyclopropyl-carbamoyl)methyl]-2-methanesulfonyl-acetamide]",3
10,"CS(=O)(=O)C(C(=O)NCC(=O)NC1CC1)c1nc2cc(F)c(-c3cnc(C4CC4)nc3)cc2s1 (stereo not drawn) [Example 192, N-[(cyclopropyl-carbamoyl)methyl]-2-[6-(2-cyclopropyl-pyrimidin-5-yl)-5-fluoro-1,3-benzothiazol-2-yl]-2-methanesulfonyl-acetamide]",25
11,"COCCS(=O)(=O)C(C(=O)NCC(=O)NC1CC1)c1nc2cc(-c3ccncc3Cl)ccc2s1 (stereo not drawn) [Example 80, 2-[5-(3-chloropyridin-4-yl)-1,3-benzothiazol-2-yl]-N-[(cyclopropyl-carbamoyl)methyl]-2-(2-methoxyethane-sulfonyl) acetamide]",49
12,"Cc1cc(-c2cc3sc(C(C(=O)NCC(=O)NC4CC4)S(=O)(=O)C(C)C)nc3cc2C)ccn1 (stereo not drawn) [Example 255, N-[(cyclopropyl-carbamoyl)methyl]-2-[5-methyl-6-(2-methylpyridin-4-yl)-1,3-benzothiazol-2-yl]-2-(propane-2-sulfonyl) acetamide]",5
13,"COCCS(=O)(=O)C(C(=O)NCC(=O)NC1CC1)c1nc2ccc(-c3ccc(NC(C)=O)cc3)cc2s1 (stereo not drawn) [Example 98, N-[(cyclopropyl-carbamoyl)methyl]-2-[6-(4-acetamidophenyl)-1,3-benzothiazol-2-yl]-2-(2-methoxyethane-sulfonyl) acetamide]",8

# Continued, values first:
row,IC50 [nM],Structure (SMILES)
1,93,"COCCS(=O)(=O)C(C(=O)NCC(=O)NC1CC1)c1nc2ccc(-c3cncnc3)cc2s1 (stereo not drawn) [Example 310, N-[(cyclopropyl-carbamoyl)methyl]-2-(2-methoxyethane-sulfonyl)-2-[6-(pyrimidin-5-yl)-1,3-benzothiazol-2-yl]acetamide]"
2,25,"COCCS(=O)(=O)C(C(=O)NCC(=O)NC1COC1)c1nc2cc(-c3ccc(F)nc3)ccc2s1 (stereo not drawn) [Example 386, 2-[5-(6-fluoropyridin-3-yl)-1,3-benzothiazol-2-yl]-2-(2-methoxyethane-sulfonyl)-N-{[(oxetan-3-yl)carbamoyl]methyl} acetamide]"
3,4,"COCCS(=O)(=O)C(C(=O)NCC(=O)NC1CC1)c1nc2ccc(-c3ccc(C(=O)NCC(C)(C)OC)cc3)cc2s1 (stereo not drawn) [Example 566, 4-[2-({[(cyclopropyl-carbamoyl)methyl]carbamoyl}(2-methoxyethane-sulfonyl)methyl)-1,3-benzothiazol-6-yl]-N-(2-methoxy-2-methylpropyl) benzamide]"
4,49,"COCCS(=O)(=O)C(C(=O)NCC(=O)NC1CC1)c1nc2cc(F)c(-c3ccc(-c4cc(O)n[nH]4)cc3)cc2s1 (stereo not drawn) [Example 415, N-[(cyclopropyl-carbamoyl)methyl]-2-{5-fluoro-6-[4-(3-hydroxy-1H-pyrazol-5-yl)phenyl]-1,3-benzothiazol-2-yl}-2-(2-methoxyethane-sulfonyl)acetamide]"
5,62,"CC(C)c1cc(CNC(=O)c2ccc3sc(C(C(=O)NCC(=O)NC4CC4)S(=O)(=O)Cc4ccc(F)cc4)nc3c2)on1 (stereo not drawn) [Example 426, 2-({[(cyclopropyl-carbamoyl)methyl]carbamoyl}(4-fluorophenyl)methanesulfonyl-methyl)-N-{[3-(propan-2-yl)-1,2-oxazol-5-yl]methyl}-1,3-benzothiazole-5-carboxamide]"
6,18,"COCCS(=O)(=O)C(C(=O)NCC(=O)NC1CC1)c1nc2cc(-c3ccc4[nH]c(=O)ccc4c3)c(F)cc2s1 (stereo not drawn) [Example 347, N-[(cyclopropyl-carbamoyl)methyl]-2-[6-fluoro-5-(2-oxo-1,2-dihydroquinolin-6-yl)-1,3-benzothiazol-2-yl]-2-(2-methoxyethane-sulfonyl)acetamide]"
7,9,"COCCN(C)C(=O)c1ccc(-c2ccc3nc(C(C(=O)NCC(=O)NC4CC4)S(=O)(=O)CCOC)sc3c2)cc1F (stereo not drawn) [Example 568, 4-[2-({[(cyclopropyl-carbamoyl)methyl]carbamoyl}(2-methoxyethane-sulfonyl)methyl)-1,3-benzothiazol-6-yl]-2-fluoro-N-(2-methoxyethyl)-N-methylbenzamide]"
8,6,"O=C(CNC(=O)C(c1nc2cc(-c3ccc(NC(=O)OCc4ccccc4)nc3)c(F)cc2s1)S(=O)(=O)CCC(F)(F)F)NC1CC1 (stereo not drawn) [Example 543, benzyl N-{5-[2-({[(cyclopropyl-carbamoyl)methyl]carbamoyl}(3,3,3-trifluoropropane-sulfonyl)methyl)-6-fluoro-1,3-benzothiazol-5-yl]pyridin-2-yl} carbamate]"
9,9,"O=C(CNC(=O)C(c1nc2cc(F)c(-c3ccc(-n4ccccc4=O)cc3)cc2s1)S(=O)(=O)c1ccc(F)cc1)NC1CC1 (stereo not drawn) [Example 479, N-[(cyclopropyl-carbamoyl)methyl]-2-{5-fluoro-6-[4-(2-oxo-1,2-dihydropyridin-1-yl)phenyl]-1,3-benzothiazol-2-yl}-2-(4-fluorobenzene-sulfonyl)acetamide]"
10,13,"COC(=O)Nc1ccc(-c2cc3sc(C(C(=O)NCC(=O)NC4CC4)S(=O)(=O)N4CCOCC4)nc3cc2F)cc1F (stereo not drawn) [Example 488, methyl N-{4-[2-({[(cyclopropyl-carbamoyl)methyl]carbamoyl} (morpholine-4-sulfonyl)methyl)-5-fluoro-1,3-benzothiazol-6-yl]-2-fluorophenyl} carbamate]"
11,8,"COCCS(=O)(=O)C(C(=O)NCC(=O)NC1CC1)c1nc2cc(-c3cccc(C(=O)N4CCC(F)(F)C4)c3)ccc2s1 (stereo not drawn) [Example 396, N-[(cyclopropyl-carbamoyl)methyl]-2-{5-[3-(3,3-difluoro-pyrrolidine-1-carbonyl)phenyl]-1,3-benzothiazol-2-yl}-2-(2-methoxyethane-sulfonyl)acetamide]"
12,3,"COCCS(=O)(=O)C(C(=O)NCC(=O)NC1CC1)c1nc2ccc(-c3ccc(C(=O)NC(C)(C)COC)cc3)cc2s1 (stereo not drawn) [Example 561, 4-[2-({[(cyclopropyl-carbamoyl)methyl]carbamoyl}(2-methoxyethane-sulfonyl)methyl)-1,3-benzothiazol-6-yl]-N-(1-methoxy-2-methylpropan-2-yl)benzamide]"
13,24,"COCCNC(=O)CNC(=O)C(c1nc2ccc(-c3ccn(C)c(=O)c3)cc2s1)S(=O)(=O)c1ccc(F)cc1 (stereo not drawn) [Example 463, 2-(4-fluorobenze-nesulfonyl)-N-{[(2-methoxyethyl)carbamoyl]methyl}-2-[6-(1-methyl-2-oxo-1,2-dihydropyridin-4-yl)-1,3-benzothiazol-2-yl]acetamide]"

# Same assay, conditions: EL from conditioned media of HT-1080 cells; 30 min preincubation at 37° C.
row,IC50 [nM],Structure (SMILES)
1,101,"COCCS(=O)(=O)C(C(=O)NCC(=O)NC1CC1)c1nc2ccc(-c3ccnc(O)c3F)cc2s1 (stereo not drawn) [Example 598, N-(2-(Cyclopropylamino)-2-oxoethyl)-2-(6-(3-fluoro-2-hydroxypyridin-4-yl)benzo[d]thiazol-2-yl)-2-((2-methoxyethyl)sulfonyl)acetamide]"
